# Test results as given in patent publication US10076519B2 (CYTOKINETICS, INC., priority 2010, dated 2018).
# Test system: rabbit skeletal myofibrils (fast skeletal myofibrils)
# Assay: Activation of fast skeletal myofibrils (PUMA assay, PK/LDH-coupled ATPase at pCa25)
# Type: biochemical
# Conditions: AC1.4 determined according to the procedure of Example 39; reported as class symbols
# Procedure, shortened: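 ATPase activity of Triton-washed rabbit skeletal myofibrils, roughly 90% fast fibres, tracked by NADH loss at 340 nm through a PK/LDH-coupled ADP-regenerating system. Calcium set to 25% of maximal activity (pCa25), in PIPES 12 mM pH 6.8 with 2 mM MgCl2 and 1 mM DTT; AC1.4 reported.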
row,Compound,Mean AC1.4
1,NC(=O)c1cccc(-c2ccc(NCC3(c4ccc(F)cc4)CCC3)nn2)c1,A (A=<1 uM)
2,Fc1cccnc1C1(CNc2ccc(-c3ccc4cn[nH]c4c3)nn2)CCC1 [(6-(1H-indazol-6-yl)pyridazin-3-yl){[(3-fluoro(2-pyridyl))cyclobutyl]methyl}amine],A (A=<1 uM)
3,CS(=O)(=O)Nc1ccc(-c2ccc(NCC3(c4ncccc4F)CCC3)nn2)cc1,B (B=1-10 uM)
4,CC(C)(C)OC(=O)NCc1cccc(-c2ccc(NCC(C)(C)c3ccc(F)cc3)nn2)c1 [(tert-butoxy)-N-{[3-(6-{[2-(4-fluorophenyl)-2-methylpropyl]amino}pyridazin-3-yl)phenyl]methyl}carboxamide],B (B=1-10 uM)
5,CC(C)(CNc1ccc(C(=O)NC2(C(=O)O)CC2)nn1)c1ccc(F)cc1 [1-[(6-{[2-(4-fluorophenyl)-2-methylpropyl]amino}pyridazin-3-yl)carbonylamino]cyclopropane-carboxylic acid],D (D=>20 uM)
6,CC(C)(CNc1ccc(-c2ccc3[nH]nc(N)c3c2)nn1)c1ccc(CO)cc1,D (D=>20 uM)
7,C=Cc1ccc(NCC(C)(C)c2ccc(F)cc2)nn1 [N-(2-(4-fluorophenyl)-2-methylpropyl)-6-vinylpyridazin-3-amine],B (B=1-10 uM)
8,CC(C)(CNc1ccc(-c2ccc3[nH]nc(N)c3c2)nn1)c1cccc(CN)c1 [[6-(3-amino(1H-indazol-5-yl))pyridazin-3-yl]{2-[3-(aminomethyl)phenyl]-2-methylpropyl}amine],C (C=10-20 uM)
9,CC(C)(CNc1ccc(-c2cccc(O)n2)nn1)c1ccc(F)cc1 [6-(6-{[2-(4-fluorophenyl)-2-methylpropyl]amino}pyridazin-3-yl)pyridin-2-ol],B (B=1-10 uM)
10,CC(C)(C)OC(=O)N(CC(C)(C)c1ncccc1F)c1ccc(-c2cccc(C(N)=O)c2)nn1,D (D=>20 uM)
11,CC(=O)Nc1n[nH]c2ccc(-c3ccc(NCC4(c5ncccc5F)CCC4)nn3)cc12,B (B=1-10 uM)
12,COC(=O)c1cncc(-c2ccc(NCC(C)(C)c3ccc(F)cc3)nn2)c1 [methyl 5-(6-{[2-(4-fluorophenyl)-2-methylpropyl]amino}pyridazin-3-yl)pyridine-3-carboxylate],B (B=1-10 uM)
13,O=C1Cc2c(cccc2-c2ccc(NCC3(c4ncccc4F)CCC3)nn2)N1,B (B=1-10 uM)
14,NC(=O)c1cccc(-c2ccc(NC3Cc4ccccc4C3)nn2)c1 [3-[6-(indan-2-ylamino)pyridazin-3-yl]benzamide],D (D=>20 uM)
15,CC(C)(CNc1ccc(-c2cccc(C#N)c2)nn1)c1ccc(F)cc1 [3-(6-{[2-(4-fluorophenyl)-2-methylpropyl]amino}pyridazin-3-yl)benzenecarbonitrile],B (B=1-10 uM)
16,"CC(C)(CNc1ccc(-c2ccc3[nH]nc(N)c3c2)nn1)c1ncco1 [[6-(3-amino(1H-indazol-5-yl))pyridazin-3-yl](2-methyl-2-(1,3-oxazol-2-yl)propyl)amine]",D (D=>20 uM)
17,NC(=O)c1cccc(-c2ccc(NCC3(c4ccc(F)cn4)CCC3)nn2)c1,B (B=1-10 uM)

# Same assay, conditions: median AC1.4 class, procedure of Example 39
row,Compound,Mean AC1.4
1,"O=C(NC[C@@H](O)CO)c1cnc(-c2ccc(NCC3(c4ncccc4F)CCC3)nn2)s1 [N-((2R)-2,3-dihydroxypropyl){2-[6-({[(3-fluoro(2-pyridyl))cyclobutyl]methyl}ami-no)pyridazin-3-yl](1,3-thiazol-5-yl)}carboxamide]",B (B=1-10 uM)
2,Nc1ncc(-c2ccc(NCC3(c4ncccc4F)CCC3)nn2)cn1 [[6-(2-aminopyrimidin-5-yl)pyridazin-3-yl]{[(3-fluoro(2-pyridyl))cyclobutyl]methyl}amine],B (B=1-10 uM)
3,CNC(=O)c1ccc(F)c(-c2ccc(NC[C@]3(c4ncccc4F)C[C@H](F)C3)nn2)c1 [{4-fluoro-3-[6-({[3-fluoro-1-(3-fluoro(2-pyridyl))cyclobutyl]methyl}ami-no)pyridazin-3-yl]phenyl}-N-methylcarboxamide],A (A=<1 uM)
4,CC(C)(Nc1ccc(-c2cccc(C(N)=O)c2)nn1)c1ccccc1 [3-{6-[(1-methyl-1-phenylethyl)amino]pyridazin-3-yl}benzamide],B (B=1-10 uM)
5,COc1ccc(-c2ccc(NCC3(c4ncccc4F)CCC3)nn2)cc1C(=O)O,D (D=>20 uM)
6,NC(=O)c1nccc(-c2ccc(NCC3(c4ncccc4F)CCC3)nn2)n1 [4-[6-({[(3-fluoro-2-pyridyl)cyclobutyl]methyl}ami-no)pyridazin-3-yl]pyrimidine-2-carboxamide],D (D=>20 uM)
7,"O=c1[nH]nc(-c2ccc(F)c(-c3ccc(NCC4(c5ncccc5F)CCC4)nn3)c2)[nH]1 [3-{4-fluoro-3-[6-({[(3-fluoro(2-pyridyl))cyclobutyl]methyl}ami-no)pyridazin-3-yl]phenyl}-1,2,4-triazolin-5-one]",A (A=<1 uM)
8,CS(=O)(=O)Nc1cccc(-c2ccc(NC3(c4ncccc4OC(F)F)CCC3)nn2)c1,C (C=10-20 uM)
9,CNC(=O)Nc1ccc(-c2ccc(NCC3(c4ncccc4F)CCC3)nn2)cc1,A (A=<1 uM)
10,"O=C(NC[C@H](O)CO)c1ccc(F)c(-c2ccc(NC[C@]3(c4ncccc4F)C[C@H](F)C3)nn2)c1 [N-((2S)-2,3-dihydroxypropyl){4-fluoro-3-[6-({[3-fluoro-1-(3-fluoro(2-pyridyl))cyclobutyl]methyl}ami-no)pyridazin-3-yl]phenyl}carboxamide]",A (A=<1 uM)
11,Cn1nc(C(N)=O)cc1-c1ccc(NCC2(c3ncccc3F)CCC2)nn1,B (B=1-10 uM)
12,"Nc1ccc2nc(-c3ccc(NCC4(c5ncccc5F)CCC4)nn3)sc2n1 [[6-(5-amino(1,3-thiazolino[5,4-b]pyridin-2-yl))pyridazin-3-yl]{[(3-fluoro(2-pyridyl))cyclobutyl]methyl}amine]",B (B=1-10 uM)
13,"O=C(NCc1cnc(-c2ccc(NCC3(c4ncccc4F)CCC3)nn2)s1)c1ccn[nH]1 [N-({2-[6-({[(3-fluoro(2-pyridyl))cyclobutyl]methyl}ami-no)pyridazin-3-yl](1,3-thiazol-5-yl)}methyl)pyrazol-5-ylcarboxamide]",A (A=<1 uM)
14,NC(=O)c1cnc(-c2ccc(NCC3(c4ncccc4F)CCC3)nn2)o1,B (B=1-10 uM)
15,NC(=O)c1ccc(-c2ccc(NC3(c4ncccc4F)CCC3)nn2)s1 [5-(6-{[(3-fluoro-2-pyridyl)cyclobutyl]amino}pyr-idazin-3-yl)thiophene-2-carboxamide],B (B=1-10 uM)
16,COc1ccc(-c2ccc(NCC3(c4ncccc4F)CCC3)nn2)nc1 [{[(3-fluoro(2-pyridyl))cyclobutyl]methyl}[6-(5-methoxy(2-pyridyl))pyridazin-3-yl]amine],B (B=1-10 uM)
17,"CS(=O)(=O)CCNC(=O)c1cnc(-c2ccc(NCC3(c4ncccc4F)CCC3)nn2)s1 [{2-[6-({[(3-fluoro(2-pyridyl))cyclobutyl]methyl}ami-no)pyridazin-3-yl](1,3-thiazol-5-yl)}-N-[2-(methylsulfonyl)ethyl]carboxamide]",A (A=<1 uM)
18,"O=c1[nH][nH]c2nc(-c3ccc(NCC4(c5ncccc5F)CCC4)nn3)sc12 [5-[6-({[(3-fluoro-2-pyridyl)cyclobutyl]methyl}ami-no)pyridazin-3-yl]-3-pyrazolino[3,4-d]1,3-thiazol-3-one]",D (D=>20 uM)
19,NC(=O)c1cccc(-c2ccc(NC3(c4ncccc4OC(F)F)CCC3)nn2)c1,D (D=>20 uM)
20,Fc1cccnc1C1(CNc2ccc(C3=CCCCC3)nn2)CCC1 [(6-cyclohex-1-enylpyridazin-3-yl){[(3-fluoro(2-pyridyl))cyclobutyl]methyl}amine],A (A=<1 uM)

# Same assay, conditions: median AC1.4 reported as class; procedure of Example 39
row,Compound,Mean AC1.4
1,CNC(=O)c1cc(-c2ccc(NC[C@]3(c4ncccc4F)C[C@H](F)C3)nn2)ccc1F [{2-fluoro-5-[6-({[3-fluoro-1-(3-fluoro(2-pyridyl))cyclobutyl]methyl}ami-no)pyridazin-3-yl]phenyl}-N-methylcarboxamide],C (C=10-20 uM)
2,COC(=O)Cc1ccc(F)c(-c2ccc(NCC3(c4ncccc4F)CCC3)nn2)c1 [methyl 2-{4-fluoro-3-[6-({[(3-fluoro(2-pyridyl))cyclobutyl]methyl}ami-no)pyridazin-3-yl]phenyl}acetate],B (B=1-10 uM)
3,"O=C(Nc1nncs1)c1ccc(NCC2(c3ncccc3F)CCC2)nn1 [[6-({[(3-fluoro(2-pyridyl))cyclobutyl]methyl}ami-no)pyridazin-3-yl]-N-(1,3,4-thiadiazol-2-yl)carboxamide]",B (B=1-10 uM)
4,"CN1CCN(Cc2cnc(-c3ccc(NCC4(c5ncccc5F)CCC4)nn3)s2)CC1 [{[(3-fluoro(2-pyridyl))cyclobutyl]methyl}(6-{5-[(4-methylpiperazinyl)methyl](1,3-thiazol-2-yl)}pyridazin-3-yl)amine]",B (B=1-10 uM)
5,"O=C(NCC(F)(F)F)c1ccc(F)c(-c2ccc(NC[C@]3(c4ncccc4F)C[C@H](F)C3)nn2)c1 [{4-fluoro-3-[6-({[3-fluoro-1-(3-fluoro(2-pyridyl))cyclobutyl]methyl}ami-no)pyridazin-3-yl]phenyl}-N-(2,2,2-trifluoroethyl)carboxamide]",B (B=1-10 uM)
6,O=C(O)c1ccc(O)c(-c2ccc(NCC3(c4ncccc4F)CCC3)nn2)c1 [3-[6-({[(3-fluoro(2-pyridyl))cyclobutyl]methyl}ami-no)pyridazin-3-yl]-4-hydroxybenzoic acid],C (C=10-20 uM)
